Assay results: patent US11559527B2 (priority 2017, dated 2023)

Tests used:
Format in all cases: cell-based, Human
Notch signaling = assay: Luciferase reporter assay MCF7-GFP-Rbp/Jk(luc); details: 50 μM, 2 and 5 days
Text: (§1) Mitochondrial fusion and fission may also have an impact in signaling pathways that regulate stem cell proliferation and survival. […] A range of reporter MCF7-GFP cell lines were generated, including MCF7-GFP-GLI(luc), MCF7-GFP-Rbp/Jk(luc), MCF7-GFP-SMAD(luc) and MCF7-GFP-TCF/LEF(luc), to assess Hedgehog signaling, Notch signaling, TGFβ signaling, and Wnt signaling, respectively. […] The data is shown in the four data plots in FIG. 9.
(§2) LUCIFERASE ASSAY: The Cignal Lenti reporter assay (luc) was used to monitor the activity of several signalling pathways in MCF7-GFP cells as explained previously. Luciferase Assay System (E1501, Promega) was performed according to manufacturer's instructions. 1×10^4 MCF7 […] were seeded in black-walled 96 well plates. When cells were attached, drug treatments were added for 18, 48 hours and 5 days. After treatment, Luciferase Assay was performed according to manufacturer's instructions and light signal was acquired in the Xenogen VivoVision IVIS Lumina. Results were normalized by SRB staining of cells grown in 96-well plates in parallel.
(§3) SULFORHODAMINE B (SRB) ASSAY: SRB (S9012, Sigma) measures total biomass by staining cellular proteins. […] Absorbance was spectrophotometrically measured at 562 nm in a FluoStar Omega plate reader (BMG Labtech). […]

E-cadherin = assay: Western blotting (immunoblot); details: MCF7 cells after mDIVI-1 treatment
Protocol: Breast cancer stem cells can exist in distinct states, an mesenchymal-like state and an epithelial-like state, being the first one characterized for its expression of CD24^−/CD44^+, with an mesenchymal-like gene-expression profile and primarily quiescent.
At the end of the treatment, cells in suspension were spun down and lysed and attached cells were directly lysed in RIPA lysis buffer (R0278, Sigma) containing proteinase inhibitors (05 892 970 001, Roche) and kept at 4° C. for 20 minutes with rotation. Lysates were cleared by centrifugation for 10 minutes at 10,000×g and supernatants were collected. Equal amounts of protein lysate, as determined by using the BCA protein assay kit (23225, Pierce) were diluted in SDS sample buffer and dry-boiled for 5 minutes before being separated by SDS-PAGE using 4-20% gels (456-1094, Biorad). Samples were then blotted onto nitrocellulose membranes (170-4159, Biorad), blocked in 5% milk in TBS-Tween 20 (P9416, Sigma) for 1 hour and probed with antibodies against E-cadherin (ab8995, Abcam) or β-actin (a2228, Sigma). Bound antibodies were detected using a horseradish peroxidase-conjugated secondary antibody (ab6789 and ab6721, Abcam) and signal was obtained using Supersignal West Pico chemiluminiscent substrate (34087, ThermoScientific). Pictures were taken in a ChemiDoc XRS with Image Lab Software (BioRad).

MCF7 breast cancer cells = assay: Tumorsphere formation assay, MCF7; details: five days, vs vehicle
Protocol: One of the gold standard techniques for the study and identification of CSCs is the sphere formation assay, an in vitro culture system that enriches for CSCs. Under these anchorage-independent culture conditions, CSCs preferentially form the so-called tumorspheres, whereas more differentiated cells die rapidly.
TUMORSPHERE FORMATION ASSAY: A single cell suspension was prepared using enzymatic (1× Trypsin-EDTA, T3924, Sigma Aldrich), and manual disaggregation (25 gauge needle). […] After 5 days of culture in a humidified incubator at 37° C., tumorspheres bigger than 50 μm were counted using an eye piece graticule.

Hedgehog signaling = assay: Luciferase reporter assay MCF7-GFP-GLI(luc); details: 50 μM, 2 and 5 days
Text: as §1, §2, §3

COc1cc(-n2c(S)nc3ccccc3c2=O)c(Cl)cc1Cl [mDIVI-1, 3-(2,4-Dichloro-5-methoxyphenyl)-2-sulfanyl-4(3H)-quinazolinone]
Notch/Rbp pathway luciferase activity (Notch signaling): inhibition
expression of E-cadherin (E-cadherin): reduction
decrease of tumorsphere number (MCF7 breast cancer cells; MCF7, 10 μM): 50%
decrease of tumorsphere number (MCF7 breast cancer cells; MCF7, 50 μM): 80%
decrease of tumorsphere number (MCF7 breast cancer cells; MCF7, 100 μM): 95%
Hedgehog/GLI pathway luciferase activity (Hedgehog signaling): inhibition
